Assays:
Format in all cases: cell-based
[1] = system: EBC-1 lung cancer cell line; experiment: EBC-1 cell proliferation, CellTiter-Glo assay; conditions: Homo sapiens, 120 h; Ebc-1 cell viability, CTG assay, 5 days of treatment; read-out: CTG 5 day Ebc1 GI50
Summary of the method: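 EBC-1 cells seeded at 1000 per well overnight, then exposed to 10-point dilutions (0.508 nM–10 μM final) for 5 days at 37 °C, in triplicate. ATP luminescence by CellTiter-Glo, normalised to untreated wells; GI50 from four-parameter logistic fit, runs valid only with at least one doubling.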

Bcl-xL = target: T1, Bcl-xL (Homo sapiens, UniProt Q07817); experiment: HCT116 Bcl-xL degradation, capillary-based immunoassay (WES); conditions: for DC50: HCT116, 24 h, 9-point serial dilution; for remaining activity at 0.01 µM / remaining activity at 0.1 µM: HCT-116, 24 h, % of untreated cells; for remaining activity at 0.01 µM: HCT116, 10 nM; for remaining activity at 0.1 µM: HCT116, 100 nM
T1 construct: Measured levels of Bcl-xL protein of HCT116 cells treated with the tested compounds; host or cells: HCT116
T1 sequence (Q07817 whole entry): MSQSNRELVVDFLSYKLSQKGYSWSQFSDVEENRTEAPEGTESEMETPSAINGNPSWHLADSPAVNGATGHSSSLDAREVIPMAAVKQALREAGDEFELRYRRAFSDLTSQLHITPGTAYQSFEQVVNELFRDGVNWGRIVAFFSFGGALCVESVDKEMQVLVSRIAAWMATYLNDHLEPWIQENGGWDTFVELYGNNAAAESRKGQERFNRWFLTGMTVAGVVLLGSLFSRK
Summary of the method: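 HCT116 cells treated 24 h with compound at 10/100 nM and/or 9-point dilution (quadruplicates), then lysed. Bcl-xL measured by capillary WES immunoassay, normalized to cofilin and expressed as % of untreated cells. DC50 from four-parameter curve fit.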

HiBiT-tagged BCL-xL = target: T2, HiBiT-tagged BCL-xL (Homo sapiens, UniProt Q07817); experiment: NCI-H1650 BCL-xL protein levels, Nano-Glo HiBiT Lytic Detection; conditions: NCI-H1650 expressing HiBiT-tagged BCL-xL, overnight incubation, read-out: Bcl-xl HIBIT NCIH1650 DC50
T2 construct: expressed in transfected cells; host or cells: NCI-H1650 (ATCC No. CRL-5883), engineered HiBiT cell line
T2 sequence (Q07817 whole entry): as above
Summary of the method: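 NCI-H1650 cells expressing HiBiT-tagged BCL-xL (5000/well) were treated overnight at 37° C with 10 concentrations, final 0.508 nM-10 μM, in triplicate. Remaining BCL-xL measured by Nano-Glo HiBiT lytic luminescence, normalized to untreated cells; 50% values by four-parameter logistic fit.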

MOLT-4 cells = experiment: MOLT-4 cell viability, MTT assay; conditions: Homo sapiens, MOLT-4, 48 h
Summary of the method: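 MOLT-4 cells in RPMI 1640 with 10% FBS were exposed to compounds for 48 h at 9 concentrations (3.16-fold dilutions, triplicates). After 4 h with MTT and overnight SDS/HCl solubilisation, absorbance was read at 540 nm. IC50 came from four-parameter fits versus control, as the mean of ≥2 independent experiments.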

Cc1ncsc1-c1ccc([C@H](C)NC(=O)C2C[C@@H](O)CN2C(=O)C(NC(=O)CCCCCCC(=O)N2CCN(CC#Cc3ccc(OCCCc4sc(N5CCCc6c5nnc(Nc5nc7ccccc7s5)c6C)nc4C(=O)O)c(F)c3)CC2)C(C)(C)C)cc1 (stereo in doubt) [Example 16, 2-[3-(1,3-benzothiazol-2-ylamino)-4-methyl-6,7-dihydro-5H-pyrido[2,3-c]pyridazin-8-yl]-5-[3-[2-fluoro-4-[3-[4-[8-[[(1S)-1-[(2S,4R)-4-hydroxy-2-[[(1S)-1-[4-(4-methylthiazol-5-yl)phenyl]ethyl]carbamoyl]pyrrolidine-1-carbonyl]-2,2-dimethyl-propyl]amino]-8-oxo-octanoyl]piperazin-1-yl]prop-1-ynyl]phenoxy]propyl]thiazole-4-carboxylic acid]
GI50 [1]: 9 nM
DC50 (Bcl-xL): 0.47 nM
remaining activity at 0.01 µM (Bcl-xL): 7%
remaining activity at 0.1 µM (Bcl-xL): 7%
DC50 (HiBiT-tagged BCL-xL): 3 nM
IC50 (MOLT-4 cells): 1.07 nM

Cc1ncsc1-c1ccc([C@H](C)NC(=O)[C@@H]2C[C@@H](O)CN2C(=O)[C@@H](NC(=O)CCCCCCCCCCCCN(C)CCOC23CC4(C)CC(C)(CC(Cn5ncc(-c6ccc(N7CCCc8c7nnc(Nc7nc9ccccc9s7)c8C)nc6C(=O)O)c5C)(C4)C2)C3)C(C)(C)C)cc1 [Example 136, 6-[3-(1,3-benzothiazol-2-ylamino)-4-methyl-6,7-dihydro-5H-pyrido[2,3-c]pyridazin-8-yl]-3-[1-[[3-[2-[[13-[[(1S)-1-[(2S,4R)-4-hydroxy-2-[[(1S)-1-[4-(4-methylthiazol-5-yl)phenyl]ethyl]carbamoyl]pyrrolidine-1-carbonyl]-2,2-dimethyl-propyl]amino]-13-oxo-tridecyl]-methyl-amino]ethoxy]-5,7-dimethyl-1-adamantyl]methyl]-5-methyl-pyrazol-4-yl]pyridine-2-carboxylic acid]
GI50 [1]: 1 nM
DC50 (Bcl-xL): 2.71 nM
DC50 (HiBiT-tagged BCL-xL): 1 nM
IC50 (MOLT-4 cells): 1.45 nM

Cc1ncsc1-c1ccc([C@H](C)NC(=O)[C@@H]2C[C@@H](O)CN2C(=O)[C@@H](NC(=O)CCCCCCN(C)CCOC23CC4(C)CC(C)(CC(Cn5ncc(-c6ccc(N7CCCc8c7nnc(Nc7nc9ccccc9s7)c8C)nc6C(=O)O)c5C)(C4)C2)C3)C(C)(C)C)cc1 [Example 3, 6-[3-(1,3-benzothiazol-2-ylamino)-4-methyl-6,7-dihydro-5H-pyrido[2,3-c]pyridazin-8-yl]-3-[1-[[3-[2-[[7-[[(1S)-1-[(2S,4R)-4-hydroxy-2-[[(1S)-1-[4-(4-methylthiazol-5-yl)phenyl]ethyl]carbamoyl]pyrrolidine-1-carbonyl]-2,2-dimethyl-propyl]amino]-7-oxo-heptyl]-methyl-amino]ethoxy]-5,7-dimethyl-1-adamantyl]methyl]-5-methyl-pyrazol-4-yl]pyridine-2-carboxylic acid]
GI50 [1]: 9 nM
DC50 (Bcl-xL): 4.21 nM
remaining activity at 0.01 µM (Bcl-xL): 23%
remaining activity at 0.1 µM (Bcl-xL): 17%
DC50 (HiBiT-tagged BCL-xL): 3 nM
IC50 (MOLT-4 cells): 32.1 nM

Cc1ncsc1-c1ccc([C@H](C)NC(=O)[C@@H]2CC(O)CN2C(=O)[C@@H](NC(=O)CCCCCCCCCCCCCCN(C)CCOC23CC4(C)CC(C)(CC(Cn5ncc(-c6ccc(N7CCCc8c7nnc(Nc7nc9ccccc9s7)c8C)nc6C(=O)O)c5C)(C4)C2)C3)C(C)(C)C)cc1 (stereo in doubt) [Example 7, 6-[3-(1,3-benzothiazol-2-ylamino)-4-methyl-6,7-dihydro-5H-pyrido[2,3-c]pyridazin-8-yl]-3-[1-[[3-[2-[[15-[[(1S)-1-[(2S,4R)-4-hydroxy-2-[[(1S)-1-[4-(4-methylthiazol-5-yl)phenyl]ethyl]carbamoyl]pyrrolidine-1-carbonyl]-2,2-dimethyl-propyl]amino]-15-oxo-pentadecyl]-methyl-amino]ethoxy]-5,7-dimethyl-1-adamantyl]methyl]-5-methyl-pyrazol-4-yl]pyridine-2-carboxylic acid]
GI50 [1]: 2 nM
DC50 (Bcl-xL): 0.742 nM
remaining activity at 0.01 µM (Bcl-xL): 52%
remaining activity at 0.1 µM (Bcl-xL): 34%
DC50 (HiBiT-tagged BCL-xL): 1 nM
IC50 (MOLT-4 cells): 0.493 nM

Reference: patent publication US20240376094A2, “SELECTIVE BCL-XL PROTAC COMPOUNDS AND METHODS OF USE” (Les Laboratoires Servier, priority 2021, published 2024)
